Key:
Assay type in all cases: in vivo
[1] = test system: green rice leafhopper (Nephotettix cincticeps); experiment: Nephotettix test; conditions: after 6 days; active compound concentration 0.1%; dipped rice seedlings
Experimental: [table] To produce a suitable preparation of active compound, 1 part by weight of active compound is mixed with the stated amount of solvent and the stated amount of emulsifier, and the concentrate is diluted with water to the desired concentration. Rice seedlings (Oryza sativa) are treated by being dipped into the preparation of active compound of the desired concentration and are infested with the green rice leafhopper (Nephotettix cincticeps) while the seedlings are still moist. After the specified period of time, the destruction in % is determined. 100% means that all the leafhoppers have been killed; 0% means that none of the leafhoppers have been killed.

[2] = test system: mustard beetle larvae (Phaedon cochleariae); experiment: Phaedon larvae test; conditions: after 7 days; active compound concentration 0.1%; dipped cabbage leaves
Experimental: (§1) [table] To produce a suitable preparation of active compound, 1 part by weight of active compound is mixed with the stated amount of solvent and the stated amount of emulsifier, and the concentrate is diluted with water to the desired concentration. Cabbage leaves (Brassica oleracea) are treated by being dipped into the preparation of the active compound of the desired concentration and are infested with mustard beetle larvae (Phaedon cochleariae) while the leaves are still moist. After the specified period of time, the destruction in % is determined. 100% means that all the beetle larvae have been killed; 0% means that none of the beetle larvae have been killed.

test plants = experiment: Pre-emergence test/greenhouse; conditions: greenhouse, 250 g/ha, rated after three weeks vs untreated control, 0%=no action, 100%=total destruction
Experimental: [table] To produce a suitable preparation of active compound, 1 part by weight of active compound is mixed with the stated amount of solvent, the stated amount of emulsifier is added and the concentrate is diluted with water to the desired concentration. Seeds of the test plants are sown in normal soil and, after 24 hours, watered with the preparation of the active compound. It is expedient to keep constant the amount of water per unit area The concentration of the active compound in the preparation is of no importance, only the amount of active compound applied per unit area being decisive. After three weeks, the degree of damage to the plants is rated in % damage in comparison to the development of the untreated control. The figures denote: • 0%=no action (like untreated control) 100%=total destruction [table]

[3] = test system: caterpillars of the diamond-back moth (Plutella maculipennis); experiment: Plutella test; conditions: after 7 days; active compound concentration 0.1%; dipped cabbage leaves
Experimental: as §1, with “preparation of active compound” for “preparation of the active compound”, “infested with caterpillars of the diamond-back moth (Plutella maculipennis) while the” for “infested with mustard beetle larvae (Phaedon cochleariae) while the”, “all the caterpillars have been” for “all the beetle larvae have been”, “of the caterpillars have been” for “of the beetle larvae have been”

[4] = test system: greenhouse red spider mite or two-spotted spider-mite (Tetranychus urticae); experiment: Tetranychus test (OP-resistant/immersion treatment); conditions: after 13 days; active compound concentration 0.1%; immersion treatment of bean plants
Experimental: [table] To produce a suitable preparation of active compound, 1 part by weight of active compound is mixed with the stated amount of solvent and the stated amount of emulsifier, and the concentrate is diluted with water to the desired concentrations. Bean plants (Phaseolus vulgaris) which are severely infested with all development stages of the greenhouse red spider mite or two-spotted spider-mite (Tetranychus urticae) are immersed in a preparation of active compound of the desired concentration. After the specified period of time, the destruction in % is determined. 100% means that all the spider mites have been killed; 0% means that none of the spider mites have been killed.

Row | Compound | destruction [1] [%] | destruction [2] [%] | degree of damage, Alopecurus myosuroides (test plants) [%] | degree of damage, Avena fatua (test plants) [%] | degree of damage, Beta vulgaris (test plants) [%] | degree of damage, Setaria viridis (test plants) [%] | degree of damage, Sinapis arvensis (test plants) [%] | destruction [3] [%] | activity (destruction) [4] [%] | degree of damage, Amaranthus (test plants) [%]
1 | Cc1cc(Cl)cc(Cl)c1C1=C(O)C2(CCCC(C)C2)NC1=O (single isomer, unassigned) [Example I-1-a-2] | 100 | 100 | 100 | 90 | 0 | 100 | – | – | – | –
2 | Cc1cc(Cl)cc(Cl)c1C1=C(O)C2(CCC(C)CC2)NC1=O (single isomer, unassigned) [Example I-1-a-4] | 100 | – | 100 | 100 | 0 | 100 | 95 | 100 | – | –
3 | Cc1cc(Cl)c(C2=C(O)C3(CCC(C)CC3)NC2=O)c(Cl)c1 (single isomer, unassigned) [Example I-1-a-7] | 100 | – | 100 | 90 | – | 100 | 100 | 100 | 100 | –
4 | Cc1cc(Cl)c(C2=C(O)C3(CCCC(C)C3)NC2=O)c(Cl)c1 (single isomer, unassigned) [Example I-1-a-8] | 100 | 100 | 100 | 40 | – | 100 | 100 | – | – | –
5 | CC(=O)OC1=C(c2c(C)cc(Cl)cc2Cl)C(=O)NC12CCCC(C)C2 (single isomer, unassigned) [Example I-1-b-2] | – | – | 100 | 80 | 0 | 100 | 70 | 100 | – | –
6 | CCOCC(=O)OC1=C(c2c(C)cc(Cl)cc2Cl)C(=O)NC12CCCC(C)C2 (single isomer, unassigned) [Example I-1-b-4] | – | – | 95 | 80 | 0 | 100 | 80 | – | – | –
7 | CC(=O)OC1=C(c2c(C)cc(Cl)cc2Cl)C(=O)NC12CCC(C)CC2 (single isomer, unassigned) [Example I-1-b-10] | 100 | – | 100 | 100 | 20 | 100 | 100 | – | 100 | –
8 | Cc1cc(Cl)cc(Cl)c1C1=C(OC(=O)C(C)C)C2(CCC(C)CC2)NC1=O (single isomer, unassigned) [Example I-1-b-11] | – | – | 95 | 40 | 30 | 100 | 90 | – | – | –
9 | Cc1cc(Cl)cc(Cl)c1C1=C(OC(=O)c2ccc(Cl)cc2)C2(CCC(C)CC2)NC1=O (single isomer, unassigned) [Example I-1-b-12] | – | – | 100 | 80 | 20 | 100 | 95 | – | – | –
10 | COCC(C)C(=O)OC1=C(c2c(C)cc(Cl)cc2Cl)C(=O)NC12CCC(C)CC2 (single isomer, unassigned) [Example I-1-b-13] | – | – | 100 | 80 | 30 | 100 | 90 | – | – | –
11 | Cc1cc(Cl)c(C2=C(OC(=O)C(C)C)C3(CCCC(C)C3)NC2=O)c(Cl)c1 (single isomer, unassigned) [Example I-1-b-20] | – | – | 95 | – | 30 | 90 | 80 | – | – | –
12 | CCOC(=O)OC1=C(c2c(C)cc(Cl)cc2Cl)C(=O)NC12CCCC(C)C2 (single isomer, unassigned) [Example I-1-c-2] | – | – | – | – | – | – | – | 100 | – | –
13 | CCOC(=O)OC1=C(c2c(C)cc(Cl)cc2Cl)C(=O)NC12CCC(C)CC2 (single isomer, unassigned) [Example I-1-c-4] | 100 | – | 100 | 100 | 50 | 100 | 100 | – | 100 | –
14 | CCOC(=O)OC1=C(c2c(Cl)cc(C)cc2Cl)C(=O)NC12CCC(C)CC2 (single isomer, unassigned) [Example I-1-c-6] | – | – | 100 | 100 | – | 100 | 95 | – | – | –
15 | CCOC(=O)OC1=C(c2c(Cl)cc(C)cc2Cl)C(=O)NC12CCCC(C)C2 (single isomer, unassigned) [Example I-1-c-7] | – | – | 100 | 80 | 0 | 100 | 80 | – | – | –
16 | Cc1cc(Cl)cc(Cl)c1C1=C(OC(=O)OCC(C)C)C2(CCC(C)CC2)NC1=O (single isomer, unassigned) [Example I-1-c-13] | 100 | – | – | – | – | – | – | – | – | –
17 | Cc1cc(Cl)cc(Cl)c1C1=C(O)C2(CCCCC2)NC1=O [Example I-1-a-3] | 100 | – | 100 | – | 0 | 100 | 80 | 100 | – | –
18 | Cc1cc(Cl)c(C2=C(O)C3(CCCCC3)NC2=O)c(Cl)c1 [Example I-1-a-9] | 100 | 100 | – | – | – | – | – | – | – | –
19 | Cc1cc(Cl)c(C2=C(O)C3(CCOCC3)NC2=O)c(Cl)c1 [Example I-1-a-10] | – | 100 | – | – | – | – | – | – | 100 | –
20 | Cc1cc(Cl)c(C2=C(O)C(C)(C(C)C)NC2=O)c(Cl)c1 (centres unmarked) [Example I-1-a-11] | 100 | 100 | – | – | – | – | – | – | – | –
21 | Cc1cc(Cl)cc(Cl)c1C1=C(OC(=O)C(C)C)C2(CCCCC2)NC1=O [Example I-1-b-8] | – | – | 95 | 50 | 0 | 100 | 100 | – | – | –
22 | CCOC(=O)OC1=C(c2c(C)cc(Cl)cc2Cl)C(=O)NC12CCCCC2 [Example I-1-c-3] | 100 | – | 80 | 80 | 30 | 100 | 100 | – | – | –
23 | CCC1(C)SC(=O)C(c2c(C)cc(Cl)cc2Cl)=C1O (centres unmarked) [Example I-3-a-1] | – | 100 | – | – | – | – | – | 100 | – | –
24 | Cc1cc(Cl)c(C2=C(O)C3(CCCCC3)SC2=O)c(Cl)c1 [Example I-3-a-2] | 100 | 100 | – | – | 0 | – | – | – | 100 | 60
25 | Cc1cc(Cl)cc(Cl)c1C1=C(O)C2(CCCCC2)SC1=O [Example I-3-a-3] | – | 100 | – | – | – | – | – | 100 | – | –
26 | Cc1cc(Cl)c(C2=C(OC(=O)C(C)(C)C)C3(CCCCC3)SC2=O)c(Cl)c1 [Example I-3-b-1] | 100 | – | – | – | – | – | – | 100 | 100 | –
27 | Cc1cc(Cl)c(C2=C(OC(=O)OCC(C)C)C3(CCCCC3)SC2=O)c(Cl)c1 [Example I-3-c-1] | – | – | – | – | 0 | – | – | – | 100 | 70
28 | Cc1cc(Cl)c(-c2c(O)c(C)c(C3CCCC3)oc2=O)c(Cl)c1 [I-5-a-7] | – | – | 80 | – | 0 | – | 95 | – | – | –

— patent US6858741B2, “Alkyl-dihalogenated phenyl-substituted ketoenols useful as pesticides and herbicides” (Bayer Aktiengesellschaft, priority 1995, dated 2005)
